{"source": "patent US12226610B2", "about": "“Treatment of pain associated with total knee arthroplasty with sustained-release liposomal anesthetic compositions” (Pacira Pharmaceuticals, Inc., priority 2022, dated 2025)", "key": {"[1]": {"test_system": "subjects undergoing primary unilateral TKA", "test": "Total postsurgical opioid consumption (OMED) and opioid-free status", "format": "in vivo, human", "details": "any time interval up to 96 hours post-surgery", "description": "(§1) This was a Phase 3, multicenter, randomized, double blind, active controlled study of 167 subjects undergoing primary unilateral TKA under spinal anesthesia. The study consisted of 2 cohorts that were enrolled in parallel. Cohort 1 enrolled 46 subjects to obtain information on the PK profile, pharmacodynamics (PD), efficacy, and safety. Cohort 2 enrolled 121 subjects to obtain information on efficacy and safety. An adaptive study design was used in this study, with an interim analysis conducted by an unblinded independent review committee to evaluate sample size assumptions and futility. […]\n(§2) An unscheduled pain intensity assessment using the NRS (measured as “On a scale from 0 to 10, where 0 equals no pain and 10 equals the worst possible pain, how much pain are you experiencing in your operative knee right now?”) was to be completed immediately prior to administration of any breakthrough pain medication up to 96 hours post-surgery. Medications were administered as needed; opioids were not to be given on a pre-determined schedule. […]\n(§3) Total postsurgical opioid consumption in OMED from 0 to 96 hours was analyzed using an ANCOVA model. Time to first postsurgical opioid medication was analyzed using the Kaplan Meier survival method. […]"}, "[2]": {"test_system": "subjects undergoing primary unilateral TKA", "test": "Time to first opioid consumption (rescue medication) post-surgery", "format": "in vivo, human", "description": "as §1, §2, §3"}, "[3]": {"test": "Plasma bupivacaine pharmacokinetics (Cohort 1)", "format": "in vivo, human", "description": "(§4) This was a Phase 3, multicenter, randomized, double blind, active controlled study of 167 subjects undergoing primary unilateral TKA under spinal anesthesia. The study consisted of 2 cohorts that were enrolled in parallel. Cohort 1 enrolled 46 subjects to obtain information on the PK profile, pharmacodynamics (PD), efficacy, and safety. Cohort 2 enrolled 121 subjects to obtain information on efficacy and safety. An adaptive study design was used in this study, with an interim analysis conducted by an unblinded independent review committee to evaluate sample size assumptions and futility.\n(§5) On the day of surgery, prior to surgery, subjects in Cohort 1 and Cohort 2 were randomized (1:1) to receive an adductor canal block with a single dose of either 10 mL EXPAREL (133 mg) admixed with 10 mL 0.5% bupivacaine HCl (50 mg; from hereon referred to as the EXP133-ADMIX arm) or 10 mL 0.5% bupivacaine HCl (50 mg) mixed with 10 mL normal saline (from hereon referred to as the BUP50 arm). The total dose volume was consistent (20 mL) for all subjects.\n(§6) Efficacy assessments included pain intensity scores focused on the operative knee using the Numeric Rating Scale (NRS), total postsurgical opioid consumption in OMED, time to first opioid consumption post-surgery, and subject satisfaction using the International Pain Outcome (IPO). Additionally, blood samples for PK analysis (area under the curve [AUC], maximum plasma concentration [Cmax], time of maximum plasma concentration [Tmax], including early and late Cmax and Tmax (EXP133-ADMIX arm only), apparent terminal elimination half-life [t½e1], apparent clearance [CL/F], and apparent volume of distribution [Vd/F]) and PD assessment data (sensory and motor block) were collected from Cohort 1 subjects.\nPharmacokinetic endpoints included area under the plasma concentration-versus-time curve, specifically from the time of dosing to the time of the last quantifiable concentration (AUC0-last) and AUC from the time of dosing to infinity (AUC0-∞); maximum plasma concentration (Cmax) and time of maximum plasma concentration (Tmax) for subjects treated with bupivacaine HCl; early and late Cmax and Tmax were determined for subjects treated with EXPAREL admixed with bupivacaine HCl (EXP133-ADMIX arm); t½e1; CL/F; Vd/F."}, "[4]": {"test_system": "sensory block and motor block", "test": "Pharmacodynamic assessment of sensory and motor block (Cohort 1)", "format": "in vivo, human", "description": "as §4, §5, §6\nPharmacodynamic endpoints included: duration of the sensory block and motor block; time to onset of sensory block and motor block; and time to offset of sensory block and motor block."}, "[5]": {"test_system": "subjects undergoing primary unilateral TKA", "test": "Safety assessments (TEAEs, SAEs, vital signs, EKG)", "design": "species or system human", "details": "in vivo", "excerpt": "Safety assessments included monitoring of AEs (including SAEs and adverse events of special interest [AESIs]), vital signs (temperature, resting heart rate, respiratory rate, oxygen saturation, and blood pressure), 12 lead EKG, and recording of concomitant medications.\nSafety endpoints included incidence of treatment emergent adverse events and SAEs from start of the nerve block procedure through POD14; change from baseline in vital signs over time; and abnormal post-baseline EKG findings.\nAdverse events and SAEs were recorded from the time of informed consent through POD14. Adverse events were coded using the Medical Dictionary for Regulatory Activities version 24.1 and summary tables were based on the Safety Analysis Set. A subject data listing was provided for all AEs, which included the reported term, preferred term, system organ class, treatment-emergent adverse event flag, study day of AE onset, AE start/stop date and time, relationship to study drug, frequency, severity, action taken with subject, outcome, and seriousness criteria.\nVital signs and their change from baseline were summarized with mean, median, and standard deviation at baseline and at each scheduled time point. The frequency and percentage of EKG findings (normal, abnormal/not clinically significant, and abnormal/clinically significant) were summarized at screening and each scheduled time point.\nAn AE can be defined as any untoward medical occurrence associated with the use of a drug in humans, whether or not considered drug related. An AE (also referred to as an adverse experience) could be any unfavorable and unintended sign (e.g., abnormal laboratory finding), symptom, or disease temporally associated with the use of a drug, without any judgment about causality. An AE could arise from any use of the drug (e.g., off-label use in combination with another drug) and from any route of administration, formulation, or dose, including an overdose.\nAn AE that occurred after administration of the study treatment was considered a treatment-emergent adverse event (TEAE). A continuous AE with varying grades of severity was to be recorded as 1 AE. The highest grade of severity experienced by that subject during the course of the continuous AE was to be recorded.\nAssessment of the relationship of the AE to study drug after careful medical consideration on a case-by-case basis. […]"}}, "note": "Counter-ions that a name gives are not always drawn."}
{"molecule": "CCCCN1CCCCC1C(=O)Nc1c(C)cccc1C", "note": "(stereo not drawn) [BUP50, bupivacaine HCl]", "values": [{"measurement": "subjects opioid free", "setting": "[1]", "result": "No subjects"}, {"measurement": "median time to first rescue medication", "setting": "[2]", "result": 3.63, "unit": "h"}, {"measurement": "AUC(0-inf)", "setting": "[3]; human, in vivo", "result": 7450, "unit": "ng·h/mL"}, {"measurement": "AUC(0-t)", "setting": "[3]; human, in vivo", "result": 7280, "unit": "ng·h/mL"}, {"measurement": "concentration at 60 h", "setting": "[3]; human, in vivo", "result": 43.2, "unit": "ng/mL"}, {"measurement": "median time of Cmax", "setting": "[3]; human, in vivo", "result": 0.65, "unit": "h"}, {"measurement": "shape of mean bupivacaine concentration over time", "setting": "[3]; in vivo", "result": "a single peak"}, {"measurement": "Cmax", "setting": "[3]; plasma bupivacaine", "result": 333.89, "unit": "ng/mL"}, {"measurement": "subjects in whom knee extension was not present", "setting": "[4]; 8 hours post dose (first time point with majority)", "result": 71.4, "unit": "%"}, {"measurement": "median duration of sensory block", "setting": "[4]; in vivo", "result": 11.63, "unit": "h"}, {"measurement": "time by which all subjects regained normal sensory function", "setting": "[4]; post-dose", "result": "≤ 24", "unit": "h"}, {"measurement": "subjects with clinically significant abnormal EKG findings", "setting": "[5]; human", "result": 1, "unit": "subjects"}, {"measurement": "subjects with ≥1 TEAE", "setting": "[5]; human", "result": 88.8, "unit": "%"}, {"measurement": "subjects with ≥1 TEAE related to study drug", "setting": "[5]; human", "result": 2, "unit": "subjects"}, {"measurement": "subjects discontinued from the study following SAEs", "setting": "[5]", "result": "One"}]}
